{"source": "PubChem BioAssay AID1259340", "about": "(Broad Institute, 2017)", "note": "Calls of active or inactive are those of the source.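 How the source made its calls: active means AC50 no more than ten times the top concentration tested; inconclusive means flat fit with inhibition between 30% and 70%, or unusable fit; inactive means AC50 beyond ten times the top concentration.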"}
{"biological_target": "Caspase recruitment domain-containing protein 9 (Homo sapiens) + B-cell lymphoma/leukemia 10 (Homo sapiens) (UniProt Q9H257+O95999)", "sequence (O95999 whole entry, looked up, the tested form may be a part)": "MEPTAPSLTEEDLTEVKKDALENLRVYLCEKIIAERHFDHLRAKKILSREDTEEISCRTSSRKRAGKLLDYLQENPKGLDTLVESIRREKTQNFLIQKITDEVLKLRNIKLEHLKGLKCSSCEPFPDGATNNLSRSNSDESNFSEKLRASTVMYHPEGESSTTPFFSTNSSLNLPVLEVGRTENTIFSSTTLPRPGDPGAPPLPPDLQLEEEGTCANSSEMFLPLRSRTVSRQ", "sequence (Q9H257 whole entry, looked up, the tested form may be a part)": "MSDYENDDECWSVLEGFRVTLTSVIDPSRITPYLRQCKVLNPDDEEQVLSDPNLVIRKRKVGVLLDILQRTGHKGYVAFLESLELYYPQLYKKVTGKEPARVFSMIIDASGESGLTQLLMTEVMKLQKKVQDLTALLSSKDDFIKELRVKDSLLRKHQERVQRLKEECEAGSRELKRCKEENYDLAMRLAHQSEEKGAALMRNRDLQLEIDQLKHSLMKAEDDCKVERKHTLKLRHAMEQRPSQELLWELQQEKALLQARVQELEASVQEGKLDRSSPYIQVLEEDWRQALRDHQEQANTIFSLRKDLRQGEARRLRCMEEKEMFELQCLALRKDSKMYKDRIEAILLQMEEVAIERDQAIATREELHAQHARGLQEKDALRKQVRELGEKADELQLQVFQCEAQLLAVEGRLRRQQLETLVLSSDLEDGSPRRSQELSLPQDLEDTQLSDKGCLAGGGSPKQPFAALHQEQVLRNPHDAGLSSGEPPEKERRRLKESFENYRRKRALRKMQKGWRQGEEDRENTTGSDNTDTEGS", "assay": "disruptors of CARD9-BCL10 binding, dose response, selectivity assay for CARD9-TRIM62 disruptor project, cell lysate, HEK293FT lysates, Luminex bead ELISA (AID 1259340)", "settings": "not given"}
{"smiles": "CN(C)c1ccc(CN2C[C@H]3CC[C@@H]2CN(C(=O)c2ccncc2)C3)cn1", "AC50": "> 160 µM (inactive)"}
{"smiles": "O=C(Nc1nc(-c2ccco2)c(-c2ccco2)s1)C1CCC1", "AC50": "> 160 µM (inactive)"}
{"smiles": "Cc1ccc(Nc2nc(C(=O)Nc3ccc(Cl)cc3)nc3ccccc23)cc1", "AC50": "> 160 µM (inactive)"}
{"smiles": "O=C(NC1(C(F)(F)F)Oc2ccc(Cl)cc2O1)N1CCC2(CC1)OCCO2", "note": "(configuration not stated)", "AC50": "74.8 µM"}
{"smiles": "CC(=O)c1cccc(OCC(=O)N(C)CC(=O)NCc2ccco2)c1", "AC50": "> 160 µM (inactive)"}
{"smiles": "CC(=O)Nc1ccc(Nc2nc(-c3nnc(-c4cccc(C)c4)o3)nc3ccccc23)cc1", "AC50": "72.4 µM"}
{"smiles": "Nc1ccc2ncccc2c1N", "AC50": "16.1 µM"}
{"smiles": "c1ccc(-c2nc(-c3ccco3)n3ccccc23)cc1", "AC50": "> 160 µM (inactive)"}
{"smiles": "Cc1ccc2cc(CN(Cc3ccco3)S(C)(=O)=O)c(=O)[nH]c2c1", "AC50": "> 160 µM (inactive)"}
{"smiles": "C=CCNc1ncnc2c1CCN(C(=O)c1ccc(CSC)o1)CC2", "AC50": "> 160 µM (inactive)"}
{"smiles": "O=C(O)C1Oc2cc3ccccc3cc2O1", "AC50": "> 160 µM (inactive)"}
{"smiles": "O=S(=O)(c1ccc2nc(-c3ccco3)c(-c3ccco3)nc2c1)N1CCOCC1", "AC50": "20.3 µM"}
{"smiles": "O=[N+]([O-])c1cccc(-c2nnc3ccc4ccccc4n23)c1", "AC50": "> 160 µM (inactive)"}
{"smiles": "O=C(O)CCc1ccc(-c2cccs2)n1NC(=O)c1ccco1", "AC50": "> 160 µM (inactive)"}
{"smiles": "O=C(COC(=O)c1cc(-c2cccs2)nc2ccccc12)NCc1ccco1", "AC50": "> 160 µM (inactive)"}
{"smiles": "O=C(O)c1ccc2nc(-c3ccco3)c(-c3ccco3)nc2c1", "AC50": "19.6 µM"}
{"smiles": "Cc1ccc(-c2cc(C(=O)NCc3ccco3)c3ccccc3n2)o1", "AC50": "80.3 µM"}
{"smiles": "CCN1CCN(C(=O)c2cc(-c3ccco3)nc3ccccc23)CC1", "AC50": "> 160 µM (inactive)"}
{"biological_target": "Caspase recruitment domain-containing protein 9 (Homo sapiens) + B-cell lymphoma/leukemia 10 (Homo sapiens) (UniProt Q9H257+O95999)", "assay": "disruptors of CARD9-BCL10 binding, dose response, selectivity assay for CARD9-TRIM62 disruptor project, cell lysate, HEK293FT lysates, Luminex bead ELISA (AID 1259340)", "settings": "at 80 µM (top of the series)"}
{"smiles": "Cc1c(C(=O)OCC2CCCO2)[nH]c2c1C(=O)CC(c1ccco1)C2", "note": "(configuration not stated)", "activity change, negative = inhibition": "inactive"}
{"smiles": "c1coc(-c2cn3ccc4ccccc4c3n2)c1", "activity change, negative = inhibition": "inactive"}
{"smiles": "NC(=O)C1(N2CCCCC2)CCN(c2ccc(NC(=O)c3ccccc3F)cc2C(=O)O)CC1", "activity change, negative = inhibition": "inactive"}
{"smiles": "CC(C)(C)c1ccc(-c2nc(C#N)c(NCc3ccncc3)o2)cc1", "activity change, negative = inhibition": "inactive"}
{"smiles": "N#CNc1nc(O)cc(=O)[nH]1", "activity change, negative = inhibition": "inactive"}
{"smiles": "NC(=O)C1(N2CCCCC2)CCN(c2ncc(NC(=O)c3cccs3)cc2C(=O)O)CC1", "activity change, negative = inhibition": "inactive"}
{"smiles": "O=[N+]([O-])c1ccc2nn(Cc3ccccc3)cc2c1", "activity change, negative = inhibition": "inactive"}
{"smiles": "CCOC(=O)C1CCN(C(=O)CN(Cc2ccccc2)S(C)(=O)=O)CC1", "activity change, negative = inhibition": "inactive"}
{"smiles": "COc1ccc(S(=O)(=O)c2ccccc2)cc1NS(=O)(=O)c1cccc(C(=O)O)c1", "activity change, negative = inhibition": "inactive"}
{"smiles": "O=C(COC(=O)c1cc(-c2ccco2)nc2ccccc12)NCc1ccccc1", "activity change, negative = inhibition": "inactive"}
{"smiles": "CCCc1cc(C(=O)N2CC[C@H]3CNC[C@H]32)n(C)n1", "activity change, negative = inhibition": "inactive"}
{"smiles": "Cc1cnc(C)c(N2CCN(C(=O)[C@H]3CC[C@@H](N)C3)CC2)n1", "activity change, negative = inhibition": "inactive"}
{"smiles": "Cc1cncc(-c2ccc(S(N)(=O)=O)cc2F)c1", "activity change, negative = inhibition": "inactive"}
{"smiles": "COc1ccc(-c2ccc(CCC(=O)O)o2)cc1", "activity change, negative = inhibition": "inactive"}
